{"source": "PubChem BioAssay AID624285", "about": "(Broad Institute, 2012)", "note": "Calls of active or inactive are those of the source.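 The calls were made as follows: active = signal-decreasing dose-response curve whose fitted half-maximal concentration is at or below twice the highest valid tested dose; inconclusive = flat fit at 30 to 70% signal loss, or poor fit; inactive = the rest.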", "data": [{"assay": "cell viability loss after compound exposure – 24 h, luminescence, cherry-picked samples, cytotoxicity control for PDI inhibitor project, dose response (AID 624285)", "conditions": "NIH3T3/HeLa viability, CellTiter-Glo ATP luminescence, 24 h; at 35 µM (top of the series)", "values": [{"molecule": "C[C@H]1CN([C@@H](C)CO)C(=O)c2cc(NC(=O)Cc3cn(C)c4ccccc34)ccc2O[C@H]1CN(C)S(=O)(=O)c1ccc(F)cc1", "activity change, negative = cytotoxicity": "-5.48% (inactive)"}, {"molecule": "CSc1cccc(NC(=O)CN(C)S(=O)(=O)c2ccc(F)cc2)c1", "activity change, negative = cytotoxicity": "-8.11% (inactive)"}, {"molecule": "C[C@@H]1O[C@@H](O[C@H]2[C@H](O)[C@@H](O)[C@H](Oc3c(-c4ccc(O)c(O)c4)oc4cc(O)cc(O)c4c3=O)O[C@@H]2CO)[C@H](O)[C@H](O)[C@H]1O", "activity change, negative = cytotoxicity": "1.36% (inactive)"}, {"molecule": "CCOC(=O)CN(c1ccccc1)S(=O)(=O)c1ccc(F)cc1", "activity change, negative = cytotoxicity": "-10.3% (inactive)"}, {"molecule": "O=C(NCCN1CCOCC1)c1cccnc1SCc1ccccc1Cl", "activity change, negative = cytotoxicity": "-5.22% (inactive)"}, {"molecule": "Cc1cc(C)c(C)c(S(=O)(=O)N2CCC(C(=O)N(C)Cc3nc4ccccc4c(=O)[nH]3)CC2)c1C", "activity change, negative = cytotoxicity": "-5.52% (inactive)"}, {"molecule": "CN(C)S(=O)(=O)c1ccc(C(=O)Nc2ccc3nc(N4CCOCC4)sc3c2)cc1", "activity change, negative = cytotoxicity": "-20.7% (inactive)"}, {"molecule": "CCOC(=O)c1c(CN2CCN(Cc3ccccc3)CC2)n(C)c2cc(Br)c(OC)cc12", "activity change, negative = cytotoxicity": "-17.4% (inactive)"}, {"molecule": "O=C1CCC(=O)N1CCc1c[nH]c2ccccc12", "activity change, negative = cytotoxicity": "-6.09% (inactive)"}, {"molecule": "COCc1[nH][nH]c(=O)c1C=Nc1ccc(F)cc1F", "activity change, negative = cytotoxicity": "-11.4% (inactive)"}, {"molecule": "CCC(=O)Nc1ccc(-c2cc3ccccc3oc2=O)cc1", "activity change, negative = cytotoxicity": "-7.54% (inactive)"}, {"molecule": "O=C(c1ccco1)N1CCN(Cc2cc(=O)oc3cc(O)ccc23)CC1", "activity change, negative = cytotoxicity": "-18% (inactive)"}, {"molecule": "CCN1CC2(COC(=O)c3ccccc3N)CCC(OC)C34C5CC6C(OC)CC(O)(C5C6OC)C(O)(C(OC)C23)C14", "note": "(configuration not stated)", "activity change, negative = cytotoxicity": "-11.8% (inactive)"}, {"molecule": "COc1ccc(Cl)cc1NC(=O)COC(=O)C1CC1", "activity change, negative = cytotoxicity": "-9.32% (inactive)"}, {"molecule": "COCC(=O)N(C)C1(c2nnnn2CCOC(=O)Nc2ccc(Cl)cc2)CCCCC1", "activity change, negative = cytotoxicity": "-4.92% (inactive)"}, {"molecule": "O=C(NC(=S)Nc1cccc(NC(=O)c2ccccc2)c1)c1cccc([N+](=O)[O-])c1", "activity change, negative = cytotoxicity": "-10.7% (inactive)"}, {"molecule": "O=c1c(O[C@H]2O[C@@H](CO)[C@H](O)[C@@H](O)[C@@H]2O)c(-c2ccc(O)cc2)oc2cc(O)cc(O)c12", "activity change, negative = cytotoxicity": "-3.13% (inactive)"}, {"molecule": "O=C(N/N=C/c1ccc(O)cc1)NC12CC3CC(CC(C3)C1)C2", "activity change, negative = cytotoxicity": "-14.1% (inactive)"}, {"molecule": "Cc1noc(C)c1S(=O)(=O)Nc1ccc2c(c1)CC(=O)N([C@H](C)CO)C[C@H](C)[C@H](CN(C)S(=O)(=O)c1ccccc1)O2", "activity change, negative = cytotoxicity": "3.77% (inactive)"}, {"molecule": "C[C@H](CO)N1C[C@H](C)[C@@H](CN(C)Cc2ccc(Oc3ccccc3)cc2)Oc2c(NS(C)(=O)=O)cccc2C1=O", "activity change, negative = cytotoxicity": "0.644% (inactive)"}, {"molecule": "COc1cccc(-n2ccnc2SCC(=O)Nc2cc(OC)ccc2OC)c1", "activity change, negative = cytotoxicity": "-15.9% (inactive)"}, {"molecule": "COc1ccc(S(=O)(=O)NC(C)C(=O)Nc2ccccc2F)cc1", "note": "(configuration not stated)", "activity change, negative = cytotoxicity": "-4.66% (inactive)"}, {"molecule": "COc1ccc(C2c3ccc(O)cc3Oc3ncn(Cc4ccco4)c(=N)c32)cc1OC", "note": "(configuration not stated)", "activity change, negative = cytotoxicity": "-14.4% (inactive)"}, {"molecule": "CCOc1ncccc1C(=O)OCC(=O)Nc1ccc(C(C)C)cc1", "activity change, negative = cytotoxicity": "-7.86% (inactive)"}, {"molecule": "COc1ccc(OC)c2[nH]c(=O)c(CCNC(=O)C(=O)c3c(C)[nH]c4ccccc34)cc12", "activity change, negative = cytotoxicity": "-1.3% (inactive)"}, {"molecule": "C[C@H](CO)N1C[C@H](C)[C@H](CN(C)Cc2ccc(Oc3ccccc3)cc2)Oc2c(NS(C)(=O)=O)cccc2C1=O", "activity change, negative = cytotoxicity": "-6.82% (inactive)"}, {"molecule": "O=C1NC(Cc2ccc(O)cc2)c2nc3cc(Cl)ccc3c(=O)n2-c2ncccc21", "note": "(configuration not stated)", "activity change, negative = cytotoxicity": "-16.3% (inactive)"}, {"molecule": "CC(=O)C1=C(O)C(=O)N(CCc2c[nH]c3ccccc23)C1c1cccc(O)c1", "note": "(configuration not stated)", "activity change, negative = cytotoxicity": "-10.4% (inactive)"}, {"molecule": "COCC(=O)N(C)C1(c2nnnn2CCOC(=O)Nc2ccc(Cl)cc2)CCCC1", "activity change, negative = cytotoxicity": "-5.83% (inactive)"}, {"molecule": "CC1(C(=O)Nc2cccc3c2CCCC3)CCN1C(=O)c1cccc(F)c1", "note": "(configuration not stated)", "activity change, negative = cytotoxicity": "-14.8% (inactive)"}, {"molecule": "O=C(O)CCc1ccc(-c2cccs2)n1NC(=O)c1ccco1", "activity change, negative = cytotoxicity": "0.695% (inactive)"}, {"molecule": "CCC1Nc2ncnc(N3CCCCC3)c2N(Cc2ccc(C)cc2)C1=O", "note": "(configuration not stated)", "activity change, negative = cytotoxicity": "-16.7% (inactive)"}, {"molecule": "Cc1c(O)ccc2c(CC(=O)N[C@@H](Cc3c[nH]c4ccccc34)C(=O)O)cc(=O)oc12", "activity change, negative = cytotoxicity": "-8.56% (inactive)"}, {"molecule": "CNC[C@@H]1Oc2c(NS(C)(=O)=O)cccc2C(=O)N([C@@H](C)CO)C[C@H]1C", "activity change, negative = cytotoxicity": "1.39% (inactive)"}, {"molecule": "Cc1cc(Cl)ccc1OCc1n[nH]c(=S)n1C1CCCCC1", "activity change, negative = cytotoxicity": "-11% (inactive)"}, {"molecule": "CCOc1ccccc1CN1CCNC(=O)C1CC(=O)NCc1nccn1CC", "note": "(configuration not stated)", "activity change, negative = cytotoxicity": "-14.3% (inactive)"}, {"molecule": "CC[C@]12c3[nH]c4cc(-c5ccco5)ccc4c3CCN1C(=O)[C@@H](CC(=O)NCCCOC)C[C@@H]2C(=O)N1CCN(C(=O)c2ccco2)CC1", "activity change, negative = cytotoxicity": "-9.72% (inactive)"}, {"molecule": "CN1C(=O)NC(c2ccccc2)C2=C1CN(c1cccc(C(F)(F)F)c1)C2=O", "note": "(configuration not stated)", "activity change, negative = cytotoxicity": "-4.45% (inactive)"}, {"molecule": "Cc1ccc(SCC(=O)c2sc(-c3ccccc3)nc2C)cc1", "activity change, negative = cytotoxicity": "-11.9% (inactive)"}, {"molecule": "Cc1nn(CC(=O)NCC2CCCO2)c(C)c1[N+](=O)[O-]", "note": "(configuration not stated)", "activity change, negative = cytotoxicity": "-7.91% (inactive)"}, {"molecule": "Cn1cc(Cl)c(C(=O)OCC(=O)Nc2ccccc2)n1", "activity change, negative = cytotoxicity": "-7.99% (inactive)"}, {"molecule": "CC1(C(=O)N2CCCCC2)CCN1C(=O)Cc1ccc(-c2ccccc2)cc1", "note": "(configuration not stated)", "activity change, negative = cytotoxicity": "-5.8% (inactive)"}, {"molecule": "COc1cc(CCC(=O)OCC(=O)Nc2cc(S(=O)(=O)N3CCOCC3)ccc2Cl)cc(OC)c1OC", "activity change, negative = cytotoxicity": "-2.35% (inactive)"}, {"molecule": "CCCCn1c(SCC(=O)NC2CCS(=O)(=O)C2)nc2ccccc2c1=O", "note": "(configuration not stated)", "activity change, negative = cytotoxicity": "-8.17% (inactive)"}, {"molecule": "O=C(NCc1ccncc1)Nc1cc(Cl)ccc1Cl", "activity change, negative = cytotoxicity": "-6.87% (inactive)"}, {"molecule": "O=C(CCc1ccc(O)cc1)NN=Cc1cc(Br)ccc1O", "activity change, negative = cytotoxicity": "-12.9% (inactive)"}, {"molecule": "CC(=O)C1=C(O)C(=O)N(CCc2c[nH]c3ccccc23)C1c1ccc(O)cc1", "note": "(configuration not stated)", "activity change, negative = cytotoxicity": "-8.38% (inactive)"}, {"molecule": "C[C@@H]1CN([C@@H](C)CO)C(=O)c2cccc(NS(C)(=O)=O)c2O[C@@H]1CN(C)Cc1ccc(Oc2ccccc2)cc1", "activity change, negative = cytotoxicity": "-5.95% (inactive)"}, {"molecule": "CCOc1ccc(NC(=O)CCc2nnc3ccc(N4CCN(C)CC4)nn23)cc1", "activity change, negative = cytotoxicity": "-6.93% (inactive)"}, {"molecule": "CC(=O)N1CCC(C(=O)NCCOc2cccc(C)c2)CC1", "activity change, negative = cytotoxicity": "-15.7% (inactive)"}, {"molecule": "C[C@@H]1CN([C@H](C)CO)C(=O)c2cc(NC(=O)Cc3cn(C)c4ccccc34)ccc2O[C@@H]1CN(C)S(=O)(=O)c1ccc(F)cc1", "activity change, negative = cytotoxicity": "-8.29% (inactive)"}, {"molecule": "NC(=O)c1ccc(NC(=O)COC(=O)c2ccc(Br)c(S(=O)(=O)N3CCOCC3)c2)cc1", "activity change, negative = cytotoxicity": "-6.39% (inactive)"}, {"molecule": "COc1ccccc1NS(=O)(=O)c1cccc(C(=O)NCC2(N3CCCCC3)CCCCC2)c1", "activity change, negative = cytotoxicity": "-10.5% (inactive)"}, {"molecule": "CC(=O)OCC(=O)NCc1ccc2c(c1)OCO2", "activity change, negative = cytotoxicity": "-5.14% (inactive)"}, {"molecule": "COCC(=O)NC1(c2nnnn2CCOC(=O)Nc2ccc(Cl)cc2)CCCCC1", "activity change, negative = cytotoxicity": "-7.94% (inactive)"}, {"molecule": "C[C@@H]1CN([C@@H](C)CO)C(=O)c2cc(NC(=O)Cc3cn(C)c4ccccc34)ccc2O[C@H]1CN(C)S(=O)(=O)c1ccc(F)cc1", "activity change, negative = cytotoxicity": "3.15% (inactive)"}, {"molecule": "FC(F)(F)c1cccc(NC(=S)NCc2ccccn2)c1", "activity change, negative = cytotoxicity": "-2.29% (inactive)"}, {"molecule": "CCCCNC(=O)CCn1c(=O)c2ccccc2n(CC(=O)Nc2ccccc2OCC)c1=O", "activity change, negative = cytotoxicity": "-9.28% (inactive)"}, {"molecule": "O=C(O)C1C(c2ccccc2)C(C(=O)Oc2ccc(O)cc2)C1c1ccccc1", "note": "(configuration not stated)", "activity change, negative = cytotoxicity": "-8.75% (inactive)"}, {"molecule": "CN(C)CCN(C(=O)c1ccc(S(=O)(=O)N2CCc3ccccc32)cc1)c1nc2ccc(F)cc2s1", "activity change, negative = cytotoxicity": "-13.9% (inactive)"}, {"molecule": "CN(C)c1ccc(NC(=O)CN2C(=O)CC(c3ccccc3)=Nc3ccccc32)cc1", "activity change, negative = cytotoxicity": "-19.2% (inactive)"}, {"molecule": "CC1CCc2sc(C(=O)N/N=C/C3CCCCC3)cc2C1", "note": "(configuration not stated)", "activity change, negative = cytotoxicity": "-8.35% (inactive)"}, {"molecule": "CCN(CC)CCNC(=O)C(C(=O)c1ccccc1)n1ccccc1=O", "note": "(configuration not stated)", "activity change, negative = cytotoxicity": "-1.54% (inactive)"}, {"molecule": "O=C(c1c(O)cc(O)cc1O)C1c2c(cc(O)c3c2O[C@H](c2ccc(O)cc2)[C@@H](O)C3)OC1c1ccc(O)cc1", "note": "(some centres not stated)", "activity change, negative = cytotoxicity": "-5.6% (inactive)"}, {"molecule": "CC(=O)Nc1cccc(NC(=O)CCc2ccccc2)c1", "activity change, negative = cytotoxicity": "-12% (inactive)"}, {"molecule": "Cc1nc(C(=O)Nc2cccc(Cl)c2Cl)nn1-c1cc(OC(C)C)c(Cl)cc1Cl", "activity change, negative = cytotoxicity": "-11.1% (inactive)"}, {"molecule": "O=C(Cn1nnc2ccccc21)OCC(=O)c1ccccc1", "activity change, negative = cytotoxicity": "-11.3% (inactive)"}, {"molecule": "O=C1CC(C(=O)N2CCc3ccccc32)CN1c1ccc(F)cc1", "note": "(configuration not stated)", "activity change, negative = cytotoxicity": "-10.7% (inactive)"}, {"molecule": "O=c1cc(CSc2nnnn2-c2ccc(O)cc2)nc2sccn12", "activity change, negative = cytotoxicity": "-22.1% (inactive)"}, {"molecule": "Cc1c(O)ccc2c(CN3CCN(Cc4ccccc4)CC3)cc(=O)oc12", "activity change, negative = cytotoxicity": "-14.2% (inactive)"}, {"molecule": "Cc1ccc(CN(c2ccc(C(=O)NCc3ccccn3)cc2)S(C)(=O)=O)cc1", "activity change, negative = cytotoxicity": "-10.4% (inactive)"}, {"molecule": "C[C@@H](CN1C2=NC[C@H](Cc3ccc(O)cc3)N2C[C@H]1Cc1ccc(O)cc1)NC(=O)CCC1CCCCC1", "activity change, negative = cytotoxicity": "-8.59% (inactive)"}, {"molecule": "O=C(NC1CCCCC1)C1CCN(S(=O)(=O)c2cccs2)CC1", "activity change, negative = cytotoxicity": "-7.67% (inactive)"}, {"molecule": "Cc1ccc(O)c(NC(=O)CSc2n[nH]c(-c3ccccc3)n2)c1", "activity change, negative = cytotoxicity": "-16.4% (inactive)"}, {"molecule": "Cn1nccc1C(=O)Nc1ccc(S(=O)(=O)N2CCCC2)cc1", "activity change, negative = cytotoxicity": "-14.9% (inactive)"}, {"molecule": "OCCC1CN(Cc2cccn2-c2ccccn2)CCN1C1CCCCC1", "note": "(configuration not stated)", "activity change, negative = cytotoxicity": "-20.5% (inactive)"}, {"molecule": "C[C@H]1CN([C@@H](C)CO)C(=O)c2cccc(NS(C)(=O)=O)c2O[C@H]1CN(C)Cc1ccc(Oc2ccccc2)cc1", "activity change, negative = cytotoxicity": "-4.63% (inactive)"}]}]}
